US11208412B2 (DAEGU-GYEONGBUK MEDICAL INNOVATION FOUNDATION, priority 2017, dated 2021)

How the values were obtained:
Assay in all cases: Kinase selectivity, DiscoverX scanMAX Kinase assay panel (% control)
Type in all cases: binding
[1] = biological target: T1, kinases of the scanMAX Kinase assay panel (Homo sapiens, UniProt Q9BUB5); conditions: MKNK1; 1 uM
T1 construct: purchased DiscoverX Co. (contract measurement) scanMAX Kinase assay panel
Outline: (§1)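 Single-point screen, 1 uM cpd in DMSO. % ctrl = (cpd − pos ctrl)/(neg ctrl − pos ctrl)×100; pos ctrl = 0%, DMSO neg ctrl = 100%. Hit cutoff <35%.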

[2] = biological target: T2, kinases of the scanMAX Kinase assay panel (Mycobacterium tuberculosis, UniProt P9WI81); conditions: read-out: % control
T2 construct: purchased DiscoverX Co. (contract measurement) scanMAX Kinase assay panel
T2 sequence (P9WI81 whole entry): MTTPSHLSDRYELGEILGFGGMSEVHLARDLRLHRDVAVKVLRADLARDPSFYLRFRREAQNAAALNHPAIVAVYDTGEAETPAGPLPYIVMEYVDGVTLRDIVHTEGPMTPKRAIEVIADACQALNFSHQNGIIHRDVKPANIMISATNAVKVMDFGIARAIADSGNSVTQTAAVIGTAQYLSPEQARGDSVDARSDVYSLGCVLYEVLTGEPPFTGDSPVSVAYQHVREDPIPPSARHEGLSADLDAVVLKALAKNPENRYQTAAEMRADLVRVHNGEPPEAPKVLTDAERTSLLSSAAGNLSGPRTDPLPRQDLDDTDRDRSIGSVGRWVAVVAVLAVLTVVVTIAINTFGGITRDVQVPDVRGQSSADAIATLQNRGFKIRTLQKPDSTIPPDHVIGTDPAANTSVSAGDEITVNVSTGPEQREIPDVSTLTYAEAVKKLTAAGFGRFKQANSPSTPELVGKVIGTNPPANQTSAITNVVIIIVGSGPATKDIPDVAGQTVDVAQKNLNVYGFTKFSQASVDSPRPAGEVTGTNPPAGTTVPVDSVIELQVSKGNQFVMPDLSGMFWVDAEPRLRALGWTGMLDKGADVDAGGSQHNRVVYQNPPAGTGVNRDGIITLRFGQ
Outline: as §1

[3] = biological target: T3, kinases of the scanMAX Kinase assay panel (Homo sapiens, UniProt P50613); conditions: CDK7; 1 uM
T3 construct: purchased DiscoverX Co. (contract measurement) scanMAX Kinase assay panel
T3 sequence (P50613 whole entry): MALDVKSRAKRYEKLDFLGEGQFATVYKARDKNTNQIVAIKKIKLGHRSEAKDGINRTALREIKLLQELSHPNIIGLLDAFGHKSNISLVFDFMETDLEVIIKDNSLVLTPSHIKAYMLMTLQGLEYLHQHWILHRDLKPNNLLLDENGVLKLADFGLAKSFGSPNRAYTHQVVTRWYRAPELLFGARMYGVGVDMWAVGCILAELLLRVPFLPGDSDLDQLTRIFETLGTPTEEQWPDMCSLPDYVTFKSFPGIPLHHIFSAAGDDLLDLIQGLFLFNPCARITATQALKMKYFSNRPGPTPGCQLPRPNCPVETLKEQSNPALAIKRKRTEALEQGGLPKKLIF
Outline: as §1

[4] = biological target: T4, kinases of the scanMAX Kinase assay panel (Homo sapiens, UniProt Q6DT37); conditions: DMPK2; 1 uM
T4 construct: purchased DiscoverX Co. (contract measurement) scanMAX Kinase assay panel
T4 sequence (Q6DT37 whole entry): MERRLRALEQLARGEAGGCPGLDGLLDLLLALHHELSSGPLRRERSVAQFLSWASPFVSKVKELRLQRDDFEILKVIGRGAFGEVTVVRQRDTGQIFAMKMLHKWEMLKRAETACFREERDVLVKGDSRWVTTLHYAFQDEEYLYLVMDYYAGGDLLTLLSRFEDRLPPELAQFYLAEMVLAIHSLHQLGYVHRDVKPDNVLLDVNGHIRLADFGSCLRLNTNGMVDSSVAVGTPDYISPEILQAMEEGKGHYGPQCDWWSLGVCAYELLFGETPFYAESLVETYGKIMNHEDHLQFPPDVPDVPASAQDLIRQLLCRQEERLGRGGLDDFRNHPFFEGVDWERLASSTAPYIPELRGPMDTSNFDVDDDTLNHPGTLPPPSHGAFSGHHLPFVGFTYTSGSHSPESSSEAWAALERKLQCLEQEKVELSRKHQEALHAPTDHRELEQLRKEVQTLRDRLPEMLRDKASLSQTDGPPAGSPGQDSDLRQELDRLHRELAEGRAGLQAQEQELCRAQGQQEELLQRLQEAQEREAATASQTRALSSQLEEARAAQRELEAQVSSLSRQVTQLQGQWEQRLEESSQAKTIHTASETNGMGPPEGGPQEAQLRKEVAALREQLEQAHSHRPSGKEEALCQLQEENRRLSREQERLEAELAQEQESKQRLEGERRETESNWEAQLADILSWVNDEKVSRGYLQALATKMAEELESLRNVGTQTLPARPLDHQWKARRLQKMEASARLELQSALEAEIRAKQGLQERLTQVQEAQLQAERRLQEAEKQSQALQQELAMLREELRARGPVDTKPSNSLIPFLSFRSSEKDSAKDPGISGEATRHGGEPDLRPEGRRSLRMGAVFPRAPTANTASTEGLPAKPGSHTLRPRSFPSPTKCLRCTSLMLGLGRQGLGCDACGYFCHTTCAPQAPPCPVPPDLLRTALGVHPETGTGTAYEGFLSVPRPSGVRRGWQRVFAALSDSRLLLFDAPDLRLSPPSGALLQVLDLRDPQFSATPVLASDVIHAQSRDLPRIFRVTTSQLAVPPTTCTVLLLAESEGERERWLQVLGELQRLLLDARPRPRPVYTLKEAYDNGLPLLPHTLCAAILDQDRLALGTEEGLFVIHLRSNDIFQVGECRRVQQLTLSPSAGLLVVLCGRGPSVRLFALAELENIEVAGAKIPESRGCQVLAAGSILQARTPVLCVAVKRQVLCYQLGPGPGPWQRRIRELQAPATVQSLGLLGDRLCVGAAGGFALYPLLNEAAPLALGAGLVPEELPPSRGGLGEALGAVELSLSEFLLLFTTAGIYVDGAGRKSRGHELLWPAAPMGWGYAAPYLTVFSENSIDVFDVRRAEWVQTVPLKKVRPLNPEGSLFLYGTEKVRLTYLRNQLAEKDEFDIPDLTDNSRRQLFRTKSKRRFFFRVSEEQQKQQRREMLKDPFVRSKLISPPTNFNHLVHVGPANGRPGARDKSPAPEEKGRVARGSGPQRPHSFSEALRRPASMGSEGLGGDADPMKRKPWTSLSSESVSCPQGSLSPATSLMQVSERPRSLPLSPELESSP
Outline: as §1

[5] = biological target: T5, kinases of the scanMAX Kinase assay panel (Homo sapiens, UniProt P29320); conditions: EPHA3; 1 uM
T5 construct: purchased DiscoverX Co. (contract measurement) scanMAX Kinase assay panel
T5 sequence (P29320 21-983): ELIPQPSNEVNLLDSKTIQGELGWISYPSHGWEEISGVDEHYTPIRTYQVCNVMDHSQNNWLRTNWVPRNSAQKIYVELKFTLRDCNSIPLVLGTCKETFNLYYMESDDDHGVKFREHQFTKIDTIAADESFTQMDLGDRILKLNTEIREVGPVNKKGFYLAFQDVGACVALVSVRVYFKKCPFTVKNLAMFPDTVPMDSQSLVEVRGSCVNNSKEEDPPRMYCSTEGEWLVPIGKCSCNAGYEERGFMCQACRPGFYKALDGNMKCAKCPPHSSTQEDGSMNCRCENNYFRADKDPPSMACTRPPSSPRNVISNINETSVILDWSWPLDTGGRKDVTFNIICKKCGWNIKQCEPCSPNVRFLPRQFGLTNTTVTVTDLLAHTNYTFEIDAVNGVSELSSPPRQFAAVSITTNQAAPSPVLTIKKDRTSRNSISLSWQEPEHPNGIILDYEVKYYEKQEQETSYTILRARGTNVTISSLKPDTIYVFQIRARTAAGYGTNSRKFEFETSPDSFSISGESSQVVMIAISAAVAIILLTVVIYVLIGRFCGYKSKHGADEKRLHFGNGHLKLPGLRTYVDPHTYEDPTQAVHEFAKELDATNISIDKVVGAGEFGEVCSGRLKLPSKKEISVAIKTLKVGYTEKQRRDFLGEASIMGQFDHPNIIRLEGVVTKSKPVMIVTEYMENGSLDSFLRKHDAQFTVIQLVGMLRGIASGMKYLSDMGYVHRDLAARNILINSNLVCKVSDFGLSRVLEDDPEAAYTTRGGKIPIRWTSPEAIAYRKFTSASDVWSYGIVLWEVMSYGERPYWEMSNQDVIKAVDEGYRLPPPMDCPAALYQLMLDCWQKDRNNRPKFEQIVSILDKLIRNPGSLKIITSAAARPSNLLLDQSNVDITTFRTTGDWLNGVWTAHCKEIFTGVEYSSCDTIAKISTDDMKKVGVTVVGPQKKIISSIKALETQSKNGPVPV
Outline: as §1

[6] = biological target: T6, kinases of the scanMAX Kinase assay panel (Homo sapiens, UniProt Q05397); conditions: FAK; 1 uM
T6 construct: purchased DiscoverX Co. (contract measurement) scanMAX Kinase assay panel
Outline: as §1

[7] = biological target: T7, kinases of the scanMAX Kinase assay panel (Homo sapiens, UniProt P43405); conditions: kinase SYK; 1 uM in DMSO
T7 construct: purchased DiscoverX Co. (contract measurement) scanMAX Kinase assay panel
Outline: as §1

[8] = biological target: T8, kinases of the scanMAX Kinase assay panel (Homo sapiens, UniProt Q13873); conditions: BMPR2; 1 uM
T8 construct: purchased DiscoverX Co. (contract measurement) scanMAX Kinase assay panel
T8 sequence (Q13873 27-1038): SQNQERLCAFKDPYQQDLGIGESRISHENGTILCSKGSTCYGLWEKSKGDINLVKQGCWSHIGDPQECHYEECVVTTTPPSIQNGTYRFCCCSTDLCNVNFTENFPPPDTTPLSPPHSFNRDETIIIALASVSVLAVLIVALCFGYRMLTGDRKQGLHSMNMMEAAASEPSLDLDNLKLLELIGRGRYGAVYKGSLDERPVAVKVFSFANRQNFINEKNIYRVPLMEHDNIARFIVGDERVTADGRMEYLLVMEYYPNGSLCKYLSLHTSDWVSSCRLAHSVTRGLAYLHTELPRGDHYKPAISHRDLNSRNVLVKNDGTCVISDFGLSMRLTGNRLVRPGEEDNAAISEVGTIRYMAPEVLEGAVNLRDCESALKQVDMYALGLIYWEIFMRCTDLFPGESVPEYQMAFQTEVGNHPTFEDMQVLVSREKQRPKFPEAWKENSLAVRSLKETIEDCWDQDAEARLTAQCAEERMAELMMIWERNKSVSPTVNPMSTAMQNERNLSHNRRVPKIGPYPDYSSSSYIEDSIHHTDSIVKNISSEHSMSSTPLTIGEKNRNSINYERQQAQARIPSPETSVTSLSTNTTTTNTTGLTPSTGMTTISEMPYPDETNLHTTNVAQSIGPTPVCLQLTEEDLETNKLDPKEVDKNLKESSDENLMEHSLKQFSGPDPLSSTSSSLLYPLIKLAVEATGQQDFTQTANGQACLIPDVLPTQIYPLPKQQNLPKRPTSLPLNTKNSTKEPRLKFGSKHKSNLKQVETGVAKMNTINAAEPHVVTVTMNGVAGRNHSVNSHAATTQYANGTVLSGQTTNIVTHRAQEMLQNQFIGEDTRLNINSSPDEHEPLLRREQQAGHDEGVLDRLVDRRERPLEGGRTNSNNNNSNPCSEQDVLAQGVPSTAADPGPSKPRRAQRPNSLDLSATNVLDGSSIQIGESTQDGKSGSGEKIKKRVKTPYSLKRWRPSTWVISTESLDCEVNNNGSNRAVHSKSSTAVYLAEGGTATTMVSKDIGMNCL
Outline: as §1

[9] = biological target: T9, kinases of the scanMAX Kinase assay panel (Homo sapiens, UniProt P09769); conditions: FGR; 1 uM
T9 construct: purchased DiscoverX Co. (contract measurement) scanMAX Kinase assay panel
T9 sequence (P09769 whole entry): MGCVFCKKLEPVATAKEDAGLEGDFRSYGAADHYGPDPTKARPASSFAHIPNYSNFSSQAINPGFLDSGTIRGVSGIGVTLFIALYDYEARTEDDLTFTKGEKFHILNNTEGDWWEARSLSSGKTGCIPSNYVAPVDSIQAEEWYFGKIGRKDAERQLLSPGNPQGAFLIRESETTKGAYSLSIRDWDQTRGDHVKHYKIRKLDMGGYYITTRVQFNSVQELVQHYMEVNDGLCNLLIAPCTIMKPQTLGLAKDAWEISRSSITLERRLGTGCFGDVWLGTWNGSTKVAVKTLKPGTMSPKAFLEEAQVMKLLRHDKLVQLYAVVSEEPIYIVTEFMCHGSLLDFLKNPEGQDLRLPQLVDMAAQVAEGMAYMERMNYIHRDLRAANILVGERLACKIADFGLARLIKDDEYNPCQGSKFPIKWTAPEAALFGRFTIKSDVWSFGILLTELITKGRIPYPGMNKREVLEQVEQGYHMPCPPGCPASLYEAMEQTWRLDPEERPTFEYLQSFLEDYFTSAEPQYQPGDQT
Outline: as §1

[10] = biological target: T10, kinases of the scanMAX Kinase assay panel (Homo sapiens, UniProt P10721, D816V); conditions: KIT(D816V); 1 uM
T10 construct: purchased DiscoverX Co. (contract measurement) scanMAX Kinase assay panel
T10 sequence (P10721 26-976 D816V): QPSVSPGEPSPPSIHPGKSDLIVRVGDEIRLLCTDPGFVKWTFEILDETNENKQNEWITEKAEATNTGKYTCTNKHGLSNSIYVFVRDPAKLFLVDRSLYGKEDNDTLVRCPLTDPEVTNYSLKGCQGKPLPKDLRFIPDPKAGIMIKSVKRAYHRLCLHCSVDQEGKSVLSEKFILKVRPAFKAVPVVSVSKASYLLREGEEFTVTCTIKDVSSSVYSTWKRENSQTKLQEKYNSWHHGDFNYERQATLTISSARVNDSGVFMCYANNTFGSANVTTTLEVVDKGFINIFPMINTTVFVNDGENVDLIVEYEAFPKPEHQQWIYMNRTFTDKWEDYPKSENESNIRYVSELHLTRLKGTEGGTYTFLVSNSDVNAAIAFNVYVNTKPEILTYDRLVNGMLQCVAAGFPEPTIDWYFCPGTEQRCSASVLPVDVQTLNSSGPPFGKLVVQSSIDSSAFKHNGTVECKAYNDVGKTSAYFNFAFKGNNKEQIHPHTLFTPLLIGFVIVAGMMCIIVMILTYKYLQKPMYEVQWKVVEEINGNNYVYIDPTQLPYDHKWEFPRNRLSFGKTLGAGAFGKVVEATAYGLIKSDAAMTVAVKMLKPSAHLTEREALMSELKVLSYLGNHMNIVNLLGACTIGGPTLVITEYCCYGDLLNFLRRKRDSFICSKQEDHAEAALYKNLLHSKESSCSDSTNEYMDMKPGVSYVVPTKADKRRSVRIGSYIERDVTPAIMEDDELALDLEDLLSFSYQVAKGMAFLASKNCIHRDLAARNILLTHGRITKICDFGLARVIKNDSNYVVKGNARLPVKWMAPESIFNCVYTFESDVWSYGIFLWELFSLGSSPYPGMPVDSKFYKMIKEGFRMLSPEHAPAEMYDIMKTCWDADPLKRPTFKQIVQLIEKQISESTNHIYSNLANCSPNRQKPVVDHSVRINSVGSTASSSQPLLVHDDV
Outline: as §1

T1 sequence (Q9BUB5 whole entry): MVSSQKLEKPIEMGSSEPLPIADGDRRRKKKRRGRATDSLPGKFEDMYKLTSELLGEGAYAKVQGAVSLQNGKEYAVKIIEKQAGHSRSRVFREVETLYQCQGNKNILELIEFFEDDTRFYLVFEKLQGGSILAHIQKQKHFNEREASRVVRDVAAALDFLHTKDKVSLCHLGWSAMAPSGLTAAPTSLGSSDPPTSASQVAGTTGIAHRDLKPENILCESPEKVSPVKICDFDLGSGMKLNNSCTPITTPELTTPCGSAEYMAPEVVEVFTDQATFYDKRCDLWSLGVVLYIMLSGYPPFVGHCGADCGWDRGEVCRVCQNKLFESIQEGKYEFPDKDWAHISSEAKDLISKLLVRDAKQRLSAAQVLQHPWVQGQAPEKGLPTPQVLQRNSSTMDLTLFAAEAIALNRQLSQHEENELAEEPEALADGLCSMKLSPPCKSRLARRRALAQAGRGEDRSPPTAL

Row | SMILES | remaining binding at 1 µM [1] [%] | remaining binding at 1 µM [2] [%] | remaining binding at 1 µM [3] [%] | remaining binding at 1 µM [4] [%] | remaining binding at 1 µM [5] [%] | remaining binding at 1 µM [6] [%] | remaining binding at 1 µM [7] [%] | remaining binding at 1 µM [8] [%] | remaining binding at 1 µM [9] [%] | remaining binding at 1 µM [10] [%]
1 | CCNc1nc(Nc2ccc(C(=O)N3CCC(N4CCOCC4)CC3)cc2OC)nc2[nH]cc(C(F)(F)F)c12 [Example 104, (4-((4-(ethylamino)-5-(trifluoromethyl)-7H-pyrrolo[2,3-d]pyrimidine-2-yl)amino)-3-methoxyphenyl)(4-morpholinopiperidine-1-yl)methanone] | 100 | 83 | 48 | 100 | 92 | 3.8 | 70 | 100 | 100 | 99
2 | CNc1nc(Nc2ccc(C(=O)N3CCOCC3)cc2OC)nc2[nH]cc(C#N)c12 [Example 1, 2-((2-methoxy-4-(morpholine-4-carbonyl)phenyl)amino)-4-(methylamino)-7H-pyrrolo[2,3-d]pyrimidine-5-carbonitrile] | 62 | 90 | 67 | 90 | 92 | 55 | 62 | 79 | 94 | 89
3 | CC1(Nc2nc(Nc3cnn([C@H]4CCN(C5COC5)C[C@@H]4F)c3Cl)nc3[nH]cc(C#N)c23)CC1 [Example 52, 2-((5-chloro-1-((3S,4S)-3-fluoro-1-(oxetane-3-yl)piperidine-4-yl)-1H-pyrazole-4-yl)amino)((1-methylcyclopropyl)amino)-7H-pyrrolo[2,3-d]pyrimidine-5-carbonitrile] | 100 | 1.1 | 19 | 81 | 18 | 0.3 | 0.4 | 0.65 | 10 | 0.15
